Laboratory results: patent publication US20240408145A1, “Gene Therapy” (Ospedale San Raffaele S.r.l., priority 2021, published 2024)
Entries after “also recorded” stand apart in the source; their conditions may differ.

Experiments:
human CD34+ HSPCs [1] = experiment: Senescence markers in HSPCs ex vivo (p16); type: cell-based; conditions: mPB-derived HSPCs, 24 h and 96 h upon GE
IL1A, IL8, IL6, CCL2 = experiment: Inflammatory cytokine expression in edited HSPCs (qPCR); type: cell-based, human; conditions: CB HSPCs, HS/AAV6; inhibitor at time of GE vs standard protocol
[2] = system: BM-derived human CD34+ cells; experiment: CFU-C assay of CD34+ cells retrieved from bone marrow of primary recipients; type: cell-based; conditions: 15-18 weeks, inhibitor at time of ex vivo GE vs standard protocol
human CD34+ HSPCs [3] = experiment: Apoptosis analysis of HSPCs (Annexin V, 7AAD); type: cell-based; conditions: HSPCs edited with COMBO, 24 h upon GE
human CD34+ HSPCs [4] = experiment: HDR gene editing efficiency in HSPCs (ddPCR, GFP flow cytometry); type: cell-based

## Anakinra: recombinant and slightly modified form of the Human interleukin-1 receptor antagonist (IL-1Ra); SEQ ID NO: 3
Human CD34+ HSPCs [1]
  Percentage of p16+ senescent cells in GFP+ HDR-edited cells: partially mitigated by Anakinra treatment
IL1A, IL8, IL6, CCL2
  Relative expression of inflammatory cytokine genes (IL1A, IL8, IL6, CCL2): downregulated 96 h upon Anakinra treatment
[2]
  Number of colonies formed by BM-derived CD34+ cells: higher clonogenic potential
Human CD34+ HSPCs [3]
  Apoptosis: without overt apoptosis
Human CD34+ HSPCs [4]; CB HSPCs, AAVS1 editing (HS/AAV6), inhibitor at time of GE (Anakinra 50 ng/μl, SC514 25 μM, GSE56 mRNA, ATMi) vs standard protocol
  Percentage of HDR-edited alleles (ddPCR): equal percentage of HDR-edited alleles; also recorded: did not affect HSPC ability to repair via HDR
Human CD34+ HSPCs [4]; CB HSPCs, HS/AAV6, inhibitor at time of GE vs standard protocol
  Percentage of GFP+ cells within HSPC subpopulations (GE efficiency): maintained the efficiency of GE across all HSPC subpopulations; also recorded: no significant differences in GE efficiency in all HSPC subpopulations
Human CD34+ HSPCs [4]; HSPCs edited with COMBO
  HSPC ability to repair via HDR (GFP+ cells): without impairing HSPC ability to repair via HDR
Human CD34+ HSPCs [4]; mPB-derived HSPCs, AAVS1, inhibitor within 15 minutes upon GE
  HDR ability / percentage of GFP+ cells in HSPC subpopulations: did not affect HSPC ability to repair via HDR
